According to PMC7822030, “Hybrid Inhibitors of DNA Gyrase A and B: Design, Synthesis and Evaluation” (Pharmaceutics, 2020):
Where two headings read alike, the source gives them in different places.

How the values were obtained:
E. coli topoisomerase IV = molecular target: T1, E. coli topoisomerase IV (Escherichia coli, UniProt P0AFI2+P20083); assay: E. coli topoisomerase IV relaxation assay; assay type: biochemical
T1 construct: purchased Inspiralis, Norwich, UK
Method: (§1) The assay for determination of the IC50 values was performed according to previously reported procedures.
(§2) Briefly, inhibitory activities were determined using supercoiling (for DNA gyrase) and relaxation (for topoisomerase IV) assay kits (Inspiralis, Norwich, UK) on streptavidin-coated 96-well microtiter plates from Thermo Scientific Pierce (Thermo Fisher Scientific, Waltham, MA, USA). First, the plates were rehydrated with Wash Buffer and the biotinylated oligonucleotide TFO1 was then immobilized. After washing off the unbound oligonucleotide with Wash Buffer, the enzyme assay was performed. Into each well was added 24 µL of mixture containing 6 µL of Assay Buffer (containing ATP), 0.75 µL of relaxed (for E. coli DNA gyrase supercoiling assay) or supercoiled (for E. coli topoisomerase IV relaxation assay) pNO1 plasmid and 17.25 µL of water. Additionally, 3 µL of a solution of the inhibitor in 10% DMSO containing 0.008% Tween 20 and 3 µL of enzyme (1.5 U) in Dilution Buffer were also added to the wells. […] The TF buffer was added to terminate the enzymatic reaction and after additional incubation for 30 min at room temperature, which allowed for triplex formation (biotin–oligonucleotide–plasmid), the unbound plasmid was washed off using TF buffer. Promega Diamond dye in T10 buffer was then added. […] Here, the compounds were diluted using 2-fold serial dilution steps of the given compound. GraphPad Prism 6.0 software was used to calculate the IC50 values, which were determined in at least two independent measurements, and their means are given as the final result. […] Dose-response curves can be found in Supplementary Materials.

E. coli BW25113 WT = assay: MIC, E. coli BW25113 wild-type; assay type: cell-based; settings: Escherichia coli, BW25113, read-out: Minimum Inhibitory Concentration E. coli BW# WT
Excerpt: (§3) E. coli MG1655 originated from the laboratory collection of Dr. Csaba Pál. […] E. coli K-12 BW25113 single-gene knockout mutant lines ΔdapF, ΔmrcB, ΔsurA, ΔacrB and ΔtolC originated form the Keio collection copy owned by the laboratory of Dr. Csaba Pál.
(§4) Cation-adjusted Mueller Hinton II broth (MHBII) was used for growth of the bacteria under standard laboratory conditions, for antimicrobial susceptibility tests, and for selection of resistant variants. To prepare the MHBII broth, 22 g MHBII powder (containing 3 g beef extract, 17.5 g acid hydrolysate of casein, 1.5 g starch; Becton, Dickinson and Co., Franklin Lakes, NJ, USA) was dissolved in 1 L water. MHBII agar was prepared by addition of 14 g agar (Bacto; Molar Chemicals, Halásztelek, Hungary) to 1 L broth.
(§5) Minimum inhibitory concentrations (MICs) were determined using a standard serial broth microdilution technique, according to the Clinical and Laboratory Standards Institute guidelines. […] For Enterococcus sp., the cells were plated in BHI agar plates, and BHI broth was used to determine the MICs. […] Following the dilutions, each well was seeded with 5 × 10^4 bacterial cells. Each measurement was performed in three parallel replicates, and to avoid possible edge effects in the microwell plates, the outside rows (A, H) were filled with sterile medium. Following the inoculations, the plates were covered with the lids and wrapped in polyethylene plastic bags, to minimize evaporation but to allow O2 transfer. […] After incubation, the OD600 of each well was measured using a microplate reader (Synergy 2; Biotek, Winooski, VT, USA).

K. pneumoniae ATCC 10031 = assay: MIC broth microdilution, K. pneumoniae; assay type: cell-based; settings: Klebsiella pneumoniae, ATCC10031, read-out: MIC K. pneumoniae ATCC #
Excerpt: as §3, §4, §5

P. aeruginosa ATCC 27863 = assay: MIC broth microdilution, P. aeruginosa; assay type: cell-based; settings: Pseudomonas aeruginosa
Excerpt: as §3, §4, §5

[1] = system: E. coli MG1655 GyrA S83L, D87N ParC S80I, E84G; assay: microbe, parasite or virus in culture; assay type: cell-based, Escherichia coli
Excerpt: as §3, §4, §5
(§6) These mutated amino acids are the most common sites for target-based resistance in E. coli.

[2] = system: E. coli MG1655 GyrB R136C; assay: microbe, parasite or virus in culture; assay type: cell-based, Escherichia coli
Excerpt: as §3, §4, §5, §6

E. coli ATCC 25922 = assay: MIC broth microdilution, E. coli ATCC 25922; assay type: cell-based; settings: Escherichia coli, ATCC25922, read-out: MIC E. coli ATCC #
Excerpt: as §3, §4, §5

E. coli DNA gyrase = molecular target: T2, E. coli DNA gyrase (Escherichia coli, UniProt P0AES4+P0AES6); assay: E. coli DNA gyrase supercoiling assay; assay type: biochemical
T2 construct: purchased Inspiralis, Norwich, UK
Method: as §1, §2

E. coli MG1655 WT = assay: MIC, E. coli MG1655 wild-type with PAβN; assay type: cell-based, Escherichia coli
Excerpt: as §3, §4
as §5, with “USA). […]” for “USA).”

[3] = system: E. cloacae spp. cloacae ATCC 13047; assay: MIC broth microdilution, E. cloacae; assay type: cell-based, Enterobacter cloacae; settings: Enterobacter cloacae, ATCC13047, read-out: MIC E. cloacae spp. cloacae ATCC #
E. coli BW25113 ΔtolC = assay type: cell-based, Escherichia coli
Excerpt: as §3, §4, §5

E. coli BW25113 ΔdapF = assay type: cell-based, Escherichia coli
Excerpt: as §3, §4, §5

E. coli BW25113 ΔmrcB = assay type: cell-based, Escherichia coli
Excerpt: as §3, §4, §5

E. coli BW25113 ΔacrB = assay type: cell-based, Escherichia coli
Excerpt: as §3, §4, §5

E. coli BW25113 ΔsurA = assay type: cell-based, Escherichia coli
Excerpt: as §3, §4, §5

A. baumannii ATCC 17978 = assay: MIC broth microdilution, A. baumannii; assay type: cell-based; settings: Acinetobacter baumannii, ATCC17978, read-out: MIC A. baumannii ATCC #
Excerpt: as §3, §4, §5

[4] = molar conversion in parentheses
[5] = in the presence of 50 µg/mL PAβN

Q: Which results are given for Cc1[nH]c(C(=O)Nc2nc3c(OCc4ccccc4)cc(C(=O)N4CCN(c5cc6c(cc5F)c(=O)c(C(=O)O)cn6C5CC5)CC4)cc3s2)c(Cl)c1Cl [Compound 3b, 7-(4-(4-(Benzyloxy)-2-(3,4-dichloro-5-methyl-1H-pyrrole-2-carboxamido)benzo[d]thiazole-6-carbonyl)piperazin-1-yl)-1-cyclopropyl-6-fluoro-4-oxo-1,4-dihydroquinoline-3-carboxylic acid]?
A: IC50 (E. coli topoisomerase IV): > 10 µM; Inhibition of topoisomerase IV (in words) (E. coli topoisomerase IV; relaxation assay): lack of activity; melting point: > 300 °C; MIC (E. coli BW25113 WT; [4]): > 81 µM; MIC (E. coli BW25113 WT; wild-type): > 64 µg/mL; MIC (K. pneumoniae ATCC 10031; broth microdilution, 18 h): > 64 µg/mL; MIC (K. pneumoniae ATCC 10031; [4]): > 81 µM; MIC (P. aeruginosa ATCC 27863; ATCC27863, 18 h, read-out: MIC P. aeruginosa ATCC #): > 64 µg/mL; MIC (P. aeruginosa ATCC 27863; ATCC27863, read-out: MIC P. aeruginosa ATCC #, molar conversion in parentheses, read-out: MIC P. aeruginosa ATCC 27863): > 81 µM; MIC ([1]; Escherichia coli, MG1655, read-out: Minimum Inhibitory Concentration E. coli MG# GyrA S83L, D87N ParC S80I, E84G): > 81 µM; Minimum Inhibitory Concentration E. coli MG1655 GyrA S83L, D87N ParC S80I, E84G [1, 5]: >64 µg/mL; MIC ([2]; Escherichia coli, MG1655, read-out: Minimum Inhibitory Concentration E. coli MG# GyrB R#C): 40.5 µM; Minimum Inhibitory Concentration E. coli MG1655 GyrB R136C [2, 5]: 32 µg/mL; MIC (E. coli ATCC 25922; broth microdilution, 18 h): > 64 µg/mL; MIC (E. coli ATCC 25922; [4]): > 81 µM; IC50 (E. coli DNA gyrase): 3.3 ± 1.5 µM; MIC (E. coli MG1655 WT; Escherichia coli, MG1655, read-out: Minimum Inhibitory Concentration E. coli MG# WT, 50 µg/mL PAβN, molar conversion in parentheses): 81 µM; Minimum Inhibitory Concentration E. coli MG1655 WT (E. coli MG1655 WT; [5]): 64 µg/mL; MIC ([3]; broth microdilution, 18 h): > 64 µg/mL; MIC [3, 4]: > 81 µM; Minimum Inhibitory Concentration E. coli BW25113 ΔtolC (E. coli BW25113 ΔtolC; efflux pump mutant): 16 µg/mL; Minimum Inhibitory Concentration E. coli BW25113 ΔtolC (E. coli BW25113 ΔtolC; [4]): (20.3 µM); Minimum Inhibitory Concentration E. coli BW25113 ΔdapF (E. coli BW25113 ΔdapF; impaired cell-wall mutant): >64 µg/mL; Minimum Inhibitory Concentration E. coli BW25113 ΔdapF (E. coli BW25113 ΔdapF; [4]): (>81.0 µM); Minimum Inhibitory Concentration E. coli BW25113 ΔmrcB (E. coli BW25113 ΔmrcB; impaired cell-wall mutant): >64 µg/mL; Minimum Inhibitory Concentration E. coli BW25113 ΔmrcB (E. coli BW25113 ΔmrcB; [4]): (>81.0 µM); Minimum Inhibitory Concentration E. coli BW25113 ΔacrB (E. coli BW25113 ΔacrB; efflux pump mutant): >64 µg/mL; Minimum Inhibitory Concentration E. coli BW25113 ΔacrB (E. coli BW25113 ΔacrB; [4]): (>81.0 µM); Minimum Inhibitory Concentration E. coli BW25113 ΔsurA (E. coli BW25113 ΔsurA; impaired cell-wall mutant): >64 µg/mL; Minimum Inhibitory Concentration E. coli BW25113 ΔsurA (E. coli BW25113 ΔsurA; [4]): (>81.0 µM); MIC (A. baumannii ATCC 17978; broth microdilution, 18 h): > 64 µg/mL; MIC (A. baumannii ATCC 17978; [4]): > 81 µM
